{"source": "patent US8394426B2", "about": "“Composition comprising an extract of hardy kiwi for preventing or treating baldness disorders or seborrheic skin disorders” (Viromed Co., Ltd., priority 2004, dated 2013)", "system": "blood DHT", "assay": "concentration of blood DHT in mice after oral administration, measured by ELISA", "type": "in vivo", "details": "male C57BL/6 mice, oral finasteride 100 μg/mouse/day for 3 weeks, FIG. 4", "protocol": "To confirm the inhibition effect of hardy kiwi extract on the concentration of blood DHT, the water extract and ethanol extract of fruit of Actinidia arguta were administrated into mice and the concentration of blood DHT were determined by following procedure;\nMale C57BL/6 mice, aged 6 weeks (Seoul national university animal experimental center) were acclimated to the environment for 1 week. After 1 week, 16 mice were divided into 4 groups and each group was orally administered with 100 μl of the water extract of fruit of Actinidia arguta (1500 μg/mouse/day), 100 μl of the ethanol extract of fruit of Actinidia arguta (1500 μg/mouse/day), 100 μl of finasteride (100 μg/mouse/day), and 100 μl of drinking water (100 μg/mouse/day) for 3 weeks, respectively. After mice were sacrificed and the blood serum and spleen organ were colllected therefrom, the concentration of blood DHT was measured by ELISA (IBL-Hamburg GmbH) method. […]\nAfter 1 week, 8 mice were divided into 2 groups and each group was orally administered with 100 μl of the water extract of dried stem of A. arguta (1500 μg/mouse/day) and 100 μl of drinking water (100 μg/mouse/day) for 3 weeks, respectively. After mice were sacrificed and the blood serum and spleen organ was colllected therefrom, the concentration of blood DHT was measured.", "data": [{"smiles": "CC(C)(C)NC(=O)[C@H]1CC[C@H]2[C@@H]3CC[C@H]4NC(=O)C=C[C@]4(C)[C@H]3CC[C@]12C", "note": "[finasteride]", "values": [{"measurement": "decrease of concentration of blood DHT", "value": "about 90%"}]}]}
